Molecules are shown by their SMILES.

The nature of one data set: in vitro. Conditions: human, hela cells, % viability.
For orientation: viability means a read-out of living cells in per cent, often relative to untreated cells. Regarding `Nc1ncccc1C(=O)OCc1ccc(-c2ccccc2)cc1` [CBK295353], the viability at 28.5 h, 10 µM is 94.2%.

On to `CCc1ccc(CNC(=O)c2ccc3c(c2)NC(=O)C(N2CCOCC2)S3)cc1` (centres unmarked) [CBK071737], for which the viability at 28.5 h, 10 µM was 93.2%.

For the molecule `O=C(Cc1cccc(F)c1)N1C2CCC1CC(O)(c1ccco1)C2` (centres unmarked) [CBK284138], the viability at 28.5 h, 10 µM amounted to 95.3%.

Take `Cc1cc(C)c(NC(N)=O)c(C)c1` [CBK086399]: the viability at 28.5 h, 10 µM was 105%.

`COc1ccc(C(=O)N2CCC3(CCN(C(=O)/C=C/c4ccc5c(c4)OCO5)C3)C2)cc1OC` (centres unmarked) [CBK131775]: the viability at 28.5 h, 10 µM was found to be 96.6%.

On to `CCOC(=O)N1CCC(NC(=O)N2CCN(C3CCN(C)CC3)CC2)CC1` [CBK156113], for which the viability at 28.5 h, 10 µM turned out to be 92.2%.

Turning to `O=C(O)CCNc1nc(Cc2ccccc2)nc2sc3c(c12)CCCC3` [CBK265345], the viability at 28.5 h, 10 µM amounted to 93.4%.

Turning to `O=C(Cc1ccsc1)N1CCCC1c1nc2ccccc2[nH]1` (centres unmarked) [CBK283740], the viability at 28.5 h, 10 µM is 87.7%.

With `Cn1ccnc1C(NC(=O)N1CCCCC1)c1ccc(F)c(F)c1` (centres unmarked) [CBK283832], the viability at 28.5 h, 10 µM was 107%.

Turning to `COc1ncc(-c2cnc(N)c(-c3cccc(N(C)C)c3)n2)c(OC)n1` [CBK064017], the viability at 28.5 h, 10 µM worked out at 90.9%.

For `Cc1cc(NS(=O)(=O)c2ccc(-c3ccon3)s2)n(C)n1` [CBK067257], the viability at 28.5 h, 10 µM was 85.4%.

With `O=C1CC(N2CCN(c3ccc(S(=O)(=O)N4CCOCC4)cc3)CC2)C(=O)N1Cc1ccccc1` (centres unmarked) [CBK268713], the viability at 28.5 h, 10 µM came out at 107%.

Consider `CCCc1cc(O)nc(SCC(=O)Nc2cc3c(cc2C(C)=O)OCO3)n1` [CBK266144], for which the viability at 28.5 h, 10 µM came out at 92%.

With `CC(=O)NCC1CC(N2CCSCC2)=NO1` (centres unmarked) [CBK010367], the viability at 28.5 h, 10 µM came out at 85%.

Regarding `COc1ccc(S(=O)(=O)NC[C@H]2C[C@@H]3CC[N@]2C[C@@H]3CN2CCSCC2)cc1` [CBK288769], the viability at 28.5 h, 10 µM was found to be 86.6%.

Consider `O=C(C(c1ccccc1)c1ccccc1)N1CCN(c2ncccn2)CC1` [CBK144504], for which the viability at 28.5 h, 10 µM is 89.4%.

Consider `CC(C)(C)C1CCc2c(sc(NC(=S)NC(=O)COc3ccccc3)c2C(N)=O)C1` (centres unmarked) [CBK268634], for which the viability at 28.5 h, 10 µM is 107%.

For the molecule `COCCn1c(SCc2cc(=O)oc3cc(C)ccc23)nnc1-c1ccc(Cl)cc1` [CBK297517], the viability at 28.5 h, 10 µM was found to be 87.8%.

As to `OCc1nc2cc3cn[nH]c3cc2[nH]1` [CBK016203], the viability at 28.5 h, 10 µM was determined as 86.5%.

As for `CC(C)(CO)Cn1c(=O)[nH]c2ncc(-c3cccnc3)nc21` [CBK064697], the viability at 28.5 h, 10 µM was determined as 107%.

For the molecule `O=C(Nc1nnc[nH]1)c1cccnc1Cl` [CBK026067], the viability at 28.5 h, 10 µM is 113%.

For the molecule `CN(C)CCCNC(=O)c1cc(C(C)(C)C)nn1Cc1ccc(Cl)cc1Cl` [CBK107286], the viability at 28.5 h, 10 µM amounted to 102%.

For the molecule `Cc1cc([N+](=O)[O-])nn1CCCC(=O)Nc1cccc(O)c1` [CBK268747], the viability at 28.5 h, 10 µM is 87.1%.

With `COc1ccc(-c2ccc(OC)cc2C(=O)Nc2ccc3c(c2)OCC(=O)N3)cc1` [CBK285821], the viability at 28.5 h, 10 µM was 101%.

Consider `Fc1cc(Br)ccc1-c1cnn(-c2ccccc2)n1` [CBK112925], for which the viability at 28.5 h, 10 µM was determined as 103%.

On to `O=c1c([N+](=O)[O-])c(O)c2ccccc2n1-c1ccccc1` [CBK115316], for which the viability at 28.5 h, 10 µM was determined as 97.5%.

With `Cc1cc(C)c(S(=O)(=O)NC(CC(=O)O)c2ccccc2)cc1C` (centres unmarked) [CBK267081], the viability at 28.5 h, 10 µM was 86.8%.

For `Cc1ccc(CN2C[C@@H](N)[C@H](c3cn(C)c4cnccc34)C2)o1` [CBK285180], the viability at 28.5 h, 10 µM was found to be 84.2%.

Regarding `OCCNc1nc(O)cc(C(F)(F)F)n1` [CBK001804], the viability at 28.5 h, 10 µM stood at 99.5%.

On to `CNC(=O)CN1CCC[C@@H]2NC(=O)c3ccccc3OCCCCC[C@@H]21` [CBK292104], for which the viability at 28.5 h, 10 µM was 104%.

For the molecule `CCOC(=O)c1cnn(C2CCCN(Cc3cccs3)C2)c1` (centres unmarked) [CBK305121], the viability at 28.5 h, 10 µM amounted to 99.5%.

The data set is the same for the next values; noted with them: human, hela cells, % viability, bulk resorufin, single well.
On to `O=C(O)c1nn(Cc2ccc(Cl)c(Cl)c2)c2ccccc12` [CBK088455], for which the viability at 28.5 h, 10 µM is 91.2%.

Source of the values: paper PMC12040169 (PLOS Biology, 2025).
